From patent US9447091B2, “Protein kinase inhibitors” (Orion Corporation, priority 2011, dated 2016)

Experiments:
c-Met kinase = c-Met kinase (Homo sapiens (Human), UniProt P08581); test: c-Met TR-FRET kinase assay; type: biochemical; conditions: 1000 nM compound
Method: Compounds were screened in the TR-FRET assay with c-Met kinase. 0.1 ng of c-Met [expressed in-house] kinase was used for assay. The compound was incubated with the kinase for 60 min at RT. After the incubation, substrate mix [40 nM Ultra light poly GT (Perkin Elmer, USA) and 10 μM ATP (Sigma)] was added. The above reaction was stopped by the addition of 40 mM EDTA after the 30 min kinase reaction. The Eu-labelled antiphospho-tyrosine antibody [Perkin Elmer, USA] was added at 0.5 nM and the fluorescence emission at 615 nm/665 nm [excitation at 340 nm] was measured. The compounds were initially screened at 100 nM and 1 μM concentrations. The compounds with >50% inhibition at 100 nM of c-Met were taken for the full dose response studies. The final DMSO concentration in the assay was 1%. For IC50 determination, ⅓rd serial dilution was made from the 20 mM DMSO stock solution. 2 μl of these were transferred to the test wells containing 20 μl reaction mixture [total reaction volume 20 μl]. The fluorescence was measured in Perkin Elmer Wallac 1420 Multilabel Counter Victor 3. The IC50 was determined by fitting the dose response data to sigmoidal curve fitting equation using GraphPad Prism software V5.

FGFR1 kinase = FGFR1 kinase (Homo sapiens (Human), UniProt P11362); test: FGFR1 TR-FRET kinase assay; type: biochemical; conditions: for IC50: 13 μM ATP, read-out: IC50 of FGFR1 inhibition
FGFR1 kinase, sequence (P11362 22-822): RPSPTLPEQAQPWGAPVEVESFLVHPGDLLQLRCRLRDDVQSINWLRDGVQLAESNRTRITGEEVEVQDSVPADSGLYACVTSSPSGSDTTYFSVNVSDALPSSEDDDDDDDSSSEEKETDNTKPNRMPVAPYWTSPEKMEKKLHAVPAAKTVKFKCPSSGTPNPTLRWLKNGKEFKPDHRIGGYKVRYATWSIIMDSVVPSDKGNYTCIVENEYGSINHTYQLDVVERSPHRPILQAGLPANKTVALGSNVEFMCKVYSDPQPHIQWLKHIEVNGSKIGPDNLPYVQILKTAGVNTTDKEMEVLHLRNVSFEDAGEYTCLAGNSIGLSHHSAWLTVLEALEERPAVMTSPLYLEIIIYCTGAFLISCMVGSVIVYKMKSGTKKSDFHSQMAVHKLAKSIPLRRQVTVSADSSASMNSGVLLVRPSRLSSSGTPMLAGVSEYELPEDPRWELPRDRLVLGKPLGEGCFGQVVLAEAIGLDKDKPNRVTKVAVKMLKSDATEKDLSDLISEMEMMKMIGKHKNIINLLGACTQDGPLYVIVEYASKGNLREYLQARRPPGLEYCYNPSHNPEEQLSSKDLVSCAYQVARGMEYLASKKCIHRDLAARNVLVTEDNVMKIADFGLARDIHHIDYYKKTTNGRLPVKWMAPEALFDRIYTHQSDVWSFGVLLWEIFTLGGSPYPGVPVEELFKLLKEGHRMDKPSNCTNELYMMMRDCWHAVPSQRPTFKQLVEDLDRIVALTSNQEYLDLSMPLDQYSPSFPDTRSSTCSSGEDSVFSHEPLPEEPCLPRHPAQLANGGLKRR
Method: Compounds were screened in the TR-FRET assay with FGFR1 kinase. 5 ng of FGFR1 [Upstate, USA] kinase was used for assay. The compound was incubated with the kinase for 30 minutes at RT. After the incubation, substrate mix [40 nM Ultra light poly GT (Perkin Elmer, USA) and 13 μM ATP (Sigma)] was added. The above reaction was stopped by the addition of 40 mM EDTA after the […] kinase reaction. The Eu-labelled antiphospho-tyrosine antibody [Perkin Elmer, USA] was added at 0.5 nM and the fluorescence emission at 615 nm/665 nm [excitation at 340 nm] was measured. The compounds were initially screened at 100 nM and 1 μM concentrations. The compounds with >50% inhibition at 100 nM of FGFR1 were taken for the full dose response studies. The final DMSO concentration in the assay was 1%. For IC50 determination, ⅓^rd serial dilution was made from the 20 mM DMSO stock solution. 2 μl of these were transferred to the test wells containing 20 μl of the reaction mixture [total reaction volume 20 μl]. The fluorescence was measured in Perkin Elmer Wallac 1420 Multilabel Counter Victor 3. The IC50 was determined by fitting the dose response data to sigmoidal curve fitting equation using GraphPad Prism software V5.

c-Met kinase, sequence (P08581 25-1390): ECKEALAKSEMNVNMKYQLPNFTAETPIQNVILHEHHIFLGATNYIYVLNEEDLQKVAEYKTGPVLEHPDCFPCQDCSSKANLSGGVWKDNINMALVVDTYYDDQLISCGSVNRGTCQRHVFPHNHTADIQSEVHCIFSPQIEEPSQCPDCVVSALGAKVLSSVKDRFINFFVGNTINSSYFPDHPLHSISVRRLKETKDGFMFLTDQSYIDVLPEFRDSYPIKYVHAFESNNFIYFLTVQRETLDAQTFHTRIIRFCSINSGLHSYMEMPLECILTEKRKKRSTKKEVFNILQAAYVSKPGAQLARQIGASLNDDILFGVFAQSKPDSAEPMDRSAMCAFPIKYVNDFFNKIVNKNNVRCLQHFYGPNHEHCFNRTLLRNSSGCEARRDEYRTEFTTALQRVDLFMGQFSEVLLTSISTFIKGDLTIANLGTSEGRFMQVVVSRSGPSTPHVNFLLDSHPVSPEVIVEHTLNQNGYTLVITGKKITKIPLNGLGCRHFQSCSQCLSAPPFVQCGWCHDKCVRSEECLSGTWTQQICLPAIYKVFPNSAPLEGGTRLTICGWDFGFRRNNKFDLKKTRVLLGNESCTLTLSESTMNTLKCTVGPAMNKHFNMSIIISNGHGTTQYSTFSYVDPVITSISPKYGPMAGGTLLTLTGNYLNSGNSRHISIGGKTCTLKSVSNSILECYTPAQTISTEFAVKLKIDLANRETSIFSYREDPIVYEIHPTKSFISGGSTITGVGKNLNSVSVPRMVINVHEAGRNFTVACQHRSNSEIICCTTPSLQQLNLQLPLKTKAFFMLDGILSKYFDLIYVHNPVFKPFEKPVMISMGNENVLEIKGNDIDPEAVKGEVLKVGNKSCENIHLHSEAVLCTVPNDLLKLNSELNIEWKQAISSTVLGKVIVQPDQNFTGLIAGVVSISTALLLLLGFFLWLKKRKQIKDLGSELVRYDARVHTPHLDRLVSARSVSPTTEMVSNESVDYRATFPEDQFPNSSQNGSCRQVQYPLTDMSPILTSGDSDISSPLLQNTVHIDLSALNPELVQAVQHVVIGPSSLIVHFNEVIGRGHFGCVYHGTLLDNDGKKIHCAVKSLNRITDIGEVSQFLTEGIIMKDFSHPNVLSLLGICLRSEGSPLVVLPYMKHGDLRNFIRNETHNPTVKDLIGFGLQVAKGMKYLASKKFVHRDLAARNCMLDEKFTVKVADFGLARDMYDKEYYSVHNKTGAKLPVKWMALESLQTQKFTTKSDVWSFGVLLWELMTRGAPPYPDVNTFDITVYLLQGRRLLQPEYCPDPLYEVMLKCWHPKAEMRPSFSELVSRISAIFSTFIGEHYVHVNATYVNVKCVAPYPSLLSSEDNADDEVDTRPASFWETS

| Compound | inhibition at 1 µM (c-Met kinase) [%] | inhibition at 1 µM (FGFR1 kinase; 1000 nM compound) [%] | IC50 (FGFR1 kinase) [nM] | Inhibition (%) of FGFR1 at 1000 nM (FGFR1 kinase; 1000 nM compound) [%] |
| --- | --- | --- | --- | --- |
| Cn1cc(-c2ccc3c(c2)ncn3-c2cc(NS(=O)(=O)C3CC3)cc(-c3ccc(F)cc3F)c2)cn1 [Example 5, N-(2′,4′-difluoro-5-(5-(1-methyl-1H-pyrazol-4-yl)-1H-benzo[d]imidazol-1-yl)-biphenyl-3-yl)cyclopropanesulfonamide] | 7 | 95 | 12 |  |
| CC(=O)Nc1cc(-c2ccc(F)cc2F)cc(-n2cnc3cc(-c4cnco4)ccc32)c1 [Example 22, N-(2′,4′-difluoro-5-(5-(oxazol-5-yl)-1H-benzo[d]imidazol-1-yl)biphenyl-3-yl)-acetamide] | 5 | 99 | 3.8 |  |
| CC(C)S(=O)(=O)Nc1cc(-c2ccc(F)cc2F)cc(-n2cnc3cc(-c4cnco4)ccc32)c1 [Example 25, N-(2′,4′-difluoro-5-(5-(oxazol-5-yl)-1H-benzo[d]imidazol-1-yl)biphenyl-3-yl)-propane-2-sulfonamide] | 12 | 93 | 34 |  |
| O=S(=O)(Nc1cc(-c2ccc(F)cc2F)cc(-n2cnc3cc(-c4cnco4)ccc32)c1)c1ccccc1 [Example 26, N-(2′,4′-difluoro-5-(5-(oxazol-5-yl)-1H-benzo[d]imidazol-1-yl)biphenyl-3-yl)-benzenesulfonamide] | 2 | 93 | 21 |  |
| CCS(=O)(=O)Nc1cc(-c2ccc(F)cc2F)cc(-n2cnc3cc(-n4cccn4)ccc32)c1 [Example 30, N-(5-(5-(1H-pyrazol-1-yl)-1H-benzo[d]imidazol-1-yl)-2′,4′-difluorobiphenyl-3-yl)ethanesulfonamide] | 1 | 94 | 16 |  |
| O=C(Nc1cc(-c2ccc(F)cc2F)cc(-n2cnc3cc(-n4cccn4)ccc32)c1)NC1CCCC1 [Example 38, 1-(5-(5-(1H-pyrazol-1-yl)-1H-benzo[d]imidazol-1-yl)-2′,4′-difluorobiphenyl-3-yl)-3-cyclopentylurea] | 0 | 88 | 33 |  |
| CC(C)(O)CCn1cc(-c2ccc3c(c2)ncn3-c2cc(NS(=O)(=O)C3CC3)cc(-c3ccc(F)cc3F)c2)nn1 [Example 47, N-(2′,4′-difluoro-5-(5-(1-(3-hydroxy-3-methylbutyl)-1H-1,2,3-triazol-4-yl)-1H-benzo[d]imidazol-1-yl)biphenyl-3-yl)cyclopropanesulfonamide] | 10 | 99 | 7 |  |
| CC(=O)Nc1cc(-c2ccc(F)cc2F)cc(-n2cnc3cc(C4=NCCN4)ccc32)c1 [Example 169, N-(5-(5-(4,5-dihydro-1H-imidazol-2-yl)-1H-benzo[d]imidazol-1-yl)-2′,4′-difluoro-[1,1′-biphenyl]-3-yl)acetamide] |  | 89 | 94 |  |
| CC(=O)Nc1cc(-c2ccc(F)cc2)cc(-n2cnc3cc(-c4ccc(F)nc4)ccc32)c1 [Example 170, N-(4′-fluoro-5-(5-(6-fluoropyridin-3-yl)-1H-benzo[d]imidazol-1-yl)-[1,1′-biphenyl]-3-yl)acetamide] |  | 92 | 59 |  |
| CC(=O)Nc1cc(-c2ccc(F)cc2F)cc(-n2cnc3cc(-c4ccc(F)nc4)cnc32)c1 [Example 178, N-(2′,4′-difluoro-5-(6-(6-fluoropyridin-3-yl)-3H-imidazo[4,5-b]pyridin-3-yl)-[1,1′-biphenyl]-3-yl)acetamide] |  | 86 | 14.9 |  |
| COc1ccc(-c2cc(NC(C)=O)cc(-n3cnc4cc(-c5cnn(C)c5)ccc43)c2)c(F)c1 [Example 190, N-(2′-fluoro-4′-methoxy-5-(5-(1-methyl-1H-pyrazol-4-yl)-1H-benzo[d]imidazol-1-yl)-[1,1′-biphenyl]-3-yl)acetamide] |  | 96 | 4.3 |  |
| CC(C)n1cc(-c2ccc3c(c2)ncn3-c2cc(NS(=O)(=O)C3CC3)cc(-c3ccc(F)cc3F)c2)cn1 [Example 204, N-(2′,4′-difluoro-5-(5-(1-isopropyl-1H-pyrazol-4-yl)-1H-benzo[d]imidazol-1-yl)-[1,1′-biphenyl]-3-yl)cyclopropanesulfonamide] |  | 98 | 20 |  |
| CNS(=O)(=O)N(C)c1cc(-c2ccc(F)cc2F)cc(-n2cnc3cc(-c4cnn(C(C)C)c4)cnc32)c1 [Example 217, N-(2′,4′-difluoro-5-(6-(1-isopropyl-1H-pyrazol-4-yl)-3H-imidazo[4,5-b]pyridin-3-yl)-[1,1′-biphenyl]-3-yl)-N,N′-dimethylsulfuric diamide] |  | 91 | 10.4 |  |
| CC(=O)Nc1cc(-c2ccc(F)cc2)cc(-n2cnc3cc(-c4cnn(CCC(C)(C)O)c4)ccc32)c1 [Example 220, N-(4′-fluoro-5-(5-(1-(3-hydroxy-3-methylbutyl)-1H-pyrazol-4-yl)-1H-benzo[d]-imidazol-1-yl)-[1,1′-biphenyl]-3-yl) acetamide] |  | 97 | 3.4 |  |
| Cn1cc(-c2ccc3c(c2)ncn3-c2cc(NC(=O)Cn3cncn3)cc(-c3ccc(F)cc3F)c2)cn1 [Example 241, N-(2′,4′-difluoro-5-(5-(1-methyl-1H-pyrazol-4-yl)-1H-benzo[d]imidazol-1-yl)-[1,1′-biphenyl]-3-yl)-2-(1H-1,2,4-triazol-1-yl) acetamide] |  |  | 2.9 | 97 |
| Cn1cc(-c2cnc3c(c2)ncn3-c2cc(NS(=O)(=O)NC3CC3)cc(-c3ccc(F)cc3F)c2)cn1 [Example 244, N-cyclopropyl-N′-(2′,4′-difluoro-5-(6-(1-methyl-1H-pyrazol-4-yl)-3H-imidazo[4,5-b]pyridin-3-yl)-[1,1′-biphenyl]-3-yl)-sulfuric diamide] |  | 98 | 14 |  |
| O=C(CN1CCCCC1)Nc1cc(-c2ccc(F)cc2F)cc(-n2cnc3cc(-n4cccn4)ccc32)c1 [Example 259, N-(5-(5-(1H-pyrazol-1-yl)-1H-benzo[d]imidazol-1-yl)-2′,4′-difluoro-[1,1′-biphenyl]-3-yl)-2-(piperidin-1-yl)acetamide] |  | 92 | 45 |  |
| Cn1cc(-c2ccc3c(c2)ncn3-c2cc(Nc3ncccn3)cc(-c3ccc(F)cc3F)c2)cn1 [Example 280, N-(2′,4′-difluoro-5-(5-(1-methyl-1H-pyrazol-4-yl)-1H-benzo[d]imidazol-1-yl)-[1,1′-biphenyl]-3-yl)pyrimidin-2-amine] |  | 80 | 90 |  |
| Cn1cc(-c2ccc3c(c2)ncn3-c2cc(Nc3nccs3)cc(-c3ccc(F)cc3F)c2)cn1 [Example 281, N-(2′,4′-difluoro-5-(5-(1-methyl-1H-pyrazol-4-yl)-1H-benzo[d]imidazol-1-yl)-[1,1′-biphenyl]-3-yl) thiazol-2-amine] |  | 96 | 9 |  |
| O=c1ccc(-c2ccc3c(c2)ncn3-c2cc(NS(=O)(=O)C3CC3)cc(-c3ccc(F)cc3F)c2)c[nH]1 [Example 289, N-(2′,4′-difluoro-5-(5-(6-oxo-1,6-dihydropyridin-3-yl)-1H-benzo[d]imidazol-1-yl)-[1,1′-biphenyl]-3-yl)cyclopropanesulfonamide] |  | 94 | 32 |  |
| CS(=O)(=O)Nc1cc(-c2ncccc2F)cc(-n2cnc3cc(-c4cnn(CCN5CCOCC5)c4)ccc32)c1 [Example 294, N-(3-(3-fluoropyridin-2-yl)-5-(5-(1-(2-morpholinoethyl)-1H-pyrazol-4-yl)-1H-benzo[d]imidazol-1-yl)phenyl)methane sulphonamide] |  | 99 | 9.3 |  |
| CN1CCC(C(=O)Nc2cc(-c3ccc(F)cc3F)cc(-n3cnc4cc(-c5cnn(C)c5)cnc43)c2)CC1 [Example 319, N-(2′,4′-difluoro-5-(6-(1-methyl-1H-pyrazol-4-yl)-3H-imidazo[4,5-b]pyridin-3-yl)-[1,1′-biphenyl]-3-yl)-1-methylpiperidine-4-carboxamide] |  | 97 | 18 |  |
| O=S(=O)(Nc1cc(C2=CC=C(F)CC2F)cc(-n2cnc3cc(N4CCC(O)C4)ccc32)c1)C1CC1 (centres unmarked) [Example 322, N-(2′,4′-difluoro-5-(5-(3-hydroxypyrrolidin-1-yl)-1H-benzo[d]imidazol-1-yl)-2′,3′-dihydro-[1,1′-biphenyl]-3-yl)cyclopropanesulfonamide] |  | 92 | 65.8 |  |
